Experiments:
Botrytis cinerea = test: In vivo protective test, Botrytis cinerea (gray mold in gherkins); details: application rate 500 ppm, gherkin plants, evaluation 4-5 days after infection, 0% = control, 100% = no infection
Procedure: To produce an appropriate active ingredient formulation, active ingredient is mixed with acetone/Tween/DMSO and diluted with water to the appropriate concentration. Gherkin plants (Vert petit de Paris) are cultivated in 50/50 peat/pozzolan substrate at 24° C. and sprayed at the Z11 stage with the active ingredient formulation specified above. Plants which serve as a control are treated with an aqueous solution without active ingredient. After 24 hours, the plants are sprayed with a spore suspension of Botrytis cinerea (50 000 spores/ml). The spores are suspended in a nutrient solution consisting of 10 g/L PDB, 50 g/L D-Fructose, 2 g/L NH4NO3 and 1 g/L KH2PO4. The inoculated gherkin plants are incubated at 17° C. and at 80% relative air humidity.

Septoria tritici = test: In vivo protective test, Septoria tritici (blotch in wheat); details: application rate 500 ppm, wheat plants, evaluation 21-28 days after inoculation, 0% = control, 100% = no infection
Procedure: To produce an appropriate active ingredient formulation, active ingredient is mixed with acetone/Tween/DMSO and diluted with water to the appropriate concentration. Wheat plants (cultivar: Scipion) are cultivated in 50/50 peat/pozzolan substrate at 22° C. (12 h)/20° C. (12 h) and sprayed at the 1-leaf stage (height 10 cm) with the active ingredient formulation specified above. Control plants are sprayed with an aqueous solution without added active ingredient. After 24 hours, the plants are sprayed with a spore suspension of cryopreserved Septoria tritici (500 000 spores/ml).

Phytophthora infestans = assay type: in vivo; details: application rate 500 ppm; protective, tomato plants; evaluation 5 days after infection; 0% = control, 100% = no infection
Sphaerotheca fuliginea = test: In vivo protective test, Sphaerotheca fuliginea (powdery mildew in gherkins); details: application rate 500 ppm, gherkin plants, evaluation 12 days after inoculation, 0% = control, 100% = no infection
Procedure: Example: In vivo protective test, Sphaerotheca fuliginea (powdery mildew in gherkins) To produce an appropriate active ingredient formulation, active ingredient is mixed with acetone/Tween/DMSO and diluted with water to the appropriate concentration. Gherkin plants (cultivar: Vert petit de Paris) are cultivated in 50/50 peat/pozzolan substrate at 24° C. and sprayed at the Z11 cotyledon stage with the active ingredient formulation specified above. Plants which serve as a control are treated with an aqueous solution without active ingredient. After 24 hours, the plants are sprayed with a spore suspension of Sphaerotheca fuliginea (100 000 spores/ml). The spores are collected from infected plants. The inoculated plants are placed at 20/25° C. and at 60/70% relative humidity.

Plasmopara viticola = test: Plasmopara test (grapevine)/protective; assay type: in vivo; details: Plasmopara viticola on grapevine, protective, active ingredient concentration 100 ppm, 6 days after inoculation
Procedure: The plants are then moistened and placed in an incubation cabin for 1 day.

Venturia inaequalis = test: Venturia test (apple)/protective; details: Venturia inaequalis on apple, protective, active ingredient concentration 100 ppm, 10 days after inoculation
Procedure: • Solvents: 24.5 parts by weight of acetone • 24.5 parts by weight of dimethylacetamide • Emulsifier: 1 part by weight of alkylaryl polyglycol ether
To produce an appropriate active ingredient formulation, 1 part by weight of active ingredient is mixed with the stated amounts of solvent and emulsifier, and the concentrate is diluted with water to the desired concentration.
To test for protective efficacy, young plants are sprayed with the active ingredient formulation at the stated application rate. After the spray coating has dried on, the plants are inoculated with an aqueous conidia suspension of the apple scab pathogen Venturia inaequalis and then remain in an incubation cabin at about 20° C. and 100% relative air humidity for 1 day.
The plants are then placed in a greenhouse at about 21° C. and a relative air humidity of about 90%.
Evaluation follows 10 days after the inoculation.

SMILES: COCC(C)NC(=O)C1(OC)CC(c2cc(F)cc(F)c2)=NO1 (single isomer, unassigned) [1.11-19 D1]
- Efficacy [%] (Botrytis cinerea): 100%
- Efficacy [%] (Septoria tritici): 100%
- Efficacy [%] (Phytophthora infestans): 100%
- Efficacy [%] (Sphaerotheca fuliginea): 100%

SMILES: COCC(C)NC(=O)C1(OC)CC(c2cc(Cl)cc(Cl)c2)=NO1 (single isomer, unassigned) [1.20-19 D2]
- Efficacy [%] (Botrytis cinerea): 100%
- Efficacy [%] (Septoria tritici): 100%
- Efficacy [%] (Phytophthora infestans): 100%
- Efficacy [%] (Sphaerotheca fuliginea): 100%

SMILES: CCn1cc(CNC(=O)C2(OC)CC(c3cccc(Cl)c3)=NO2)cn1 (centres unmarked) [Compound 1.3-206]
- Efficacy [%] (Septoria tritici): 100%
- Efficacy [%] (Sphaerotheca fuliginea): 94%

SMILES: CCOC(=O)CC(C)NC(=O)C1(OC)CC(c2cccc(CC)c2)=NO1 (centres unmarked) [Compound 1.6-96]
- Efficacy [%] (Botrytis cinerea): 95%
- Efficacy [%] (Septoria tritici): 75%

SMILES: COc1cccc(C2=NOC(OC)(C(=O)NCc3ccc(Cl)nc3)C2)c1 (centres unmarked) [Compound 1.7-110]
- Efficacy [%] (Botrytis cinerea): 100%
- Efficacy [%] (Septoria tritici): 100%

SMILES: COC1(C(=O)NCc2ccc(Cl)nc2)CC(c2cc(F)cc(F)c2)=NO1 (centres unmarked) [Compound 1.11-110]
- Efficacy [%] (Botrytis cinerea): 90%
- Efficacy [%] (Septoria tritici): 100%
- Efficacy [%] (Phytophthora infestans): 100%
- Efficacy [%] (Sphaerotheca fuliginea): 78%

SMILES: COC1(C(=O)NCc2nc(C)cc(C)n2)CC(c2cc(F)cc(F)c2)=NO1 (centres unmarked) [Compound 1.11-189]
- Efficacy [%] (Phytophthora infestans): 100%

SMILES: COC1(C(=O)NCc2cccnc2Cl)CC(c2cc(F)cc(F)c2)=NO1 (centres unmarked) [Compound 1.11-238]
- Efficacy [%] (Botrytis cinerea): 100%
- Efficacy [%] (Septoria tritici): 100%
- Efficacy [%] (Phytophthora infestans): 99%
- Efficacy [%] (Sphaerotheca fuliginea): 83%

SMILES: COC1(C(=O)NCc2ccnc(Cl)c2)CC(c2cc(C)cc(F)c2)=NO1 (centres unmarked) [Compound 1.14-136]
- Efficacy [%] (Botrytis cinerea): 88%

SMILES: CCn1cc(CNC(=O)C2(OC)CC(c3cc(C)cc(F)c3)=NO2)cn1 (centres unmarked) [Compound 1.14-206]
- Efficacy [%] (Botrytis cinerea): 100%
- Efficacy [%] (Septoria tritici): 100%
- Efficacy [%] (Phytophthora infestans): 100%
- Efficacy [%] (Sphaerotheca fuliginea): 98%

SMILES: CCOC(=O)CCNC(=O)C1(OC)CC(c2cc(F)cc(OC)c2)=NO1 (centres unmarked) [Compound 1.16-94]
- Efficacy [%] (Botrytis cinerea): 75%

SMILES: CCOC(=O)CC(C)NC(=O)C1(OC)CC(c2cc(F)cc(OC)c2)=NO1 (centres unmarked) [Compound 1.16-96]
- Efficacy [%] (Botrytis cinerea): 85%
- Efficacy [%] (Septoria tritici): 88%
- Efficacy [%] (Sphaerotheca fuliginea): 78%

SMILES: COc1cc(F)cc(C2=NOC(OC)(C(=O)NCc3ccc(Cl)nc3)C2)c1 (centres unmarked) [Compound 1.16-110]
- Efficacy [%] (Botrytis cinerea): 100%
- Efficacy [%] (Septoria tritici): 100%
- Efficacy [%] (Sphaerotheca fuliginea): 89%

SMILES: CCn1cc(CNC(=O)C2(OC)CC(c3cc(F)cc(C(F)(F)F)c3)=NO2)cn1 (centres unmarked) [Compound 1.18-206]
- Efficacy [%] (Botrytis cinerea): 100%
- Efficacy [%] (Phytophthora infestans): 90%
- Efficacy [%] (Sphaerotheca fuliginea): 95%

SMILES: COC1(C(=O)NC(C)C)CC(c2cc(Cl)cc(Cl)c2)=NO1 (centres unmarked) [Compound 1.20-5]
- Efficacy [%] (Plasmopara viticola): 99%
- Efficacy [%] (Venturia inaequalis): 96%

SMILES: COC1(C(=O)NC2(C#N)CC2)CC(c2cc(Cl)cc(Cl)c2)=NO1 (centres unmarked) [Compound 1.20-64]
- Efficacy [%] (Botrytis cinerea): 70%
- Efficacy [%] (Septoria tritici): 100%
- Efficacy [%] (Phytophthora infestans): 100%
- Efficacy [%] (Sphaerotheca fuliginea): 98%

SMILES: COC1(C(=O)NCc2ccc(Cl)nc2)CC(c2cc(Cl)cc(Cl)c2)=NO1 (centres unmarked) [Compound 1.20-110]
- Efficacy [%] (Botrytis cinerea): 83%
- Efficacy [%] (Septoria tritici): 100%

SMILES: COC1(C(=O)NCc2ccncc2)CC(c2cc(Cl)cc(Cl)c2)=NO1 (centres unmarked) [Compound 1.20-135]
- Efficacy [%] (Botrytis cinerea): 100%
- Efficacy [%] (Septoria tritici): 100%
- Efficacy [%] (Sphaerotheca fuliginea): 98%

SMILES: C=CCNC(=O)C1(OC)CC(c2cc(Cl)cc(OC(F)(F)F)c2)=NO1 (centres unmarked) [Compound 1.25-16]
- Efficacy [%] (Botrytis cinerea): 100%
- Efficacy [%] (Septoria tritici): 97%
- Efficacy [%] (Sphaerotheca fuliginea): 95%

SMILES: COC1(C(N)=O)CC(c2cc(Br)cc(OC(F)(F)F)c2)=NO1 (centres unmarked) [Compound 1.32-1]
- Efficacy [%] (Septoria tritici): 98%

SMILES: COC1(C(=O)NC2CC2)CC(c2cc(Br)cc(OC(F)(F)F)c2)=NO1 (centres unmarked) [Compound 1.32-60]
- Efficacy [%] (Botrytis cinerea): 100%
- Efficacy [%] (Septoria tritici): 100%
- Efficacy [%] (Sphaerotheca fuliginea): 100%

SMILES: CCn1cc(CNC(=O)C2(OC)CC(c3cc(Br)cc(OC(F)(F)F)c3)=NO2)cn1 (centres unmarked) [Compound 1.32-206]
- Efficacy [%] (Botrytis cinerea): 96%
- Efficacy [%] (Septoria tritici): 100%

SMILES: COC1(C(=O)NC2CC2)CC(c2cc(Br)cc(C(F)(F)F)c2)=NO1 (centres unmarked) [Compound 1.33-60]
- Efficacy [%] (Botrytis cinerea): 100%
- Efficacy [%] (Septoria tritici): 100%
- Efficacy [%] (Sphaerotheca fuliginea): 100%

SMILES: COC(=O)CCCNC(=O)C1(OC)CC(c2cc(Br)cc(C(F)(F)F)c2)=NO1 (centres unmarked) [Compound 1.33-102]
- Efficacy [%] (Septoria tritici): 100%
- Efficacy [%] (Sphaerotheca fuliginea): 100%

SMILES: CCOC1(C(=O)NCc2cnn(CC)c2)CC(c2cc(F)cc(F)c2)=NO1 (centres unmarked) [Compound 2.11-206]
- Efficacy [%] (Septoria tritici): 83%
- Efficacy [%] (Phytophthora infestans): 100%

Source: US9516880B2, “Herbicidal and fungicidal 5-oxy-substituted 3-phenylisoxazoline-5-carboxamides and 5-oxy-substituted 3-phenylisoxazoline-5-thioamides” (BAYER CROPSCIENCE AG, priority 2012, dated 2016)
